Patent publication US8309602B2, “Multi-substituted diarylanilines as non-nucleoside HIV reverse transcriptase inhibitors, and preparation and use thereof” (Institute of Pharmacology and Toxicology, priority 2007, dated 2012)
Converted amounts (≈) assume the structure as drawn. Where two headings read alike, the source gives them in different places.

What was measured:
Format in all cases: cell-based
HIV virus (IIIB) = test: Assay of anti-HIV activity (H9 cell model), P24 antigen ELISA; conditions: for SI (CC50/EC50): H9 cell line, ratio of cytotoxicity CC50 to activity EC50; for EC50: H9 cell line infected with HIV (IIIB), 50% inhibition of virus replication
Protocol: Reference document (J. Med. Chem. 2004, 47, 756-760). Lymphocyte H9 was cultured at 37° C. in culture medium 1640 and 5% CO2. The tested compound was initially dissolved in DMSO, and then diluted with culture medium to conventional screening concentration: 100, 20, 4, 0.8 μg/mL. The cultured H9 cells were divided into two parts, wherein one of the parts was infected with HIV virus (IIIB) (m.i.o. 0.1-0.01 infectious Units/cell), which was used for assaying activity. The other part of the cells was not added with viruses but only with culture medium, which was used for assaying toxicity. The two parts of the cells were cultured under completely identical conditions (37° C., 5% CO2) for 4 hours, washed with fresh culture medium for three times, and then were added respectively to the prepared tested samples of different concentrations or to culture medium (the latter was positive infection control or negative drug control), and meanwhile AZT was used as positive drug control. All these cells were cultured at 37° C. in 5% CO2 for 4 days. In the fourth day, the cell membranes of the cells infected by viruses were removed, and the cytosol was tested by P24 antigen ELISA method to assay the activity of the sample, expressed using EC50. EC50 was an effective concentration when virus replication was inhibited by 50%. The part of the cells without viruses added were tested by the method of counting cells to assay the toxicity of the sample, expressed using CC50. CC50 was a concentration when growth cells were killed by 50%.

HIV-1IIIB virus strains = test: Assay of anti-HIV activity (MT-2 cell model), p24 antigen ELISA; conditions: for EC50: MT-2 cell line infected with HIV-1IIIB, 50% virus inhibition; for SI (CC50/EC50): MT-2 cell line, ratio of cytotoxicity CC50 to activity EC50
Protocol: Reference documents (Jiang, S., et al. Antimicrob. Agents Chemother. 2004, 48, 4349-4359). In 96 wells culture plate, 50 μl of different concentrations of compound solutions were mixed with HIV-1IIIB virus strains (100 TCID50) in the same volume, incubated at 37° C. for 30 minutes, added with 100 μl TM-2 cell (1×10^5/mL, RPIM 1640 culture medium containing 10% serum), mixed uniformly, and incubated at 37° C. overnight. In the second day, 150 μl supernatant was sucked off and supplemented with fresh culture medium in the same volume, the compound solutions were incubated continuously at 37° C. for 3 days, and the cell pathology effect (CPE) was recorded in the fourth day. Then 100 μl cultured supernatant was sucked up to determine p24 antigen therein with 5% Triton X-100 lytic virus particles by using ELISA method. Briefly, HIVIG (2 μg/ml) was used to encapsulate enzyme standard plate, sealed with 1% fat-free milk, and then added with virus lytic solution, incubated at 37° C. for 60 minutes. After the plate was washed completely, anti-p24 monoclonal antibody-183-12H-5C, goat anti-mouse antibody labeled with biotin and horse radish peroxidase labeled with avidin were added. Then the compounds were developed with TMB, and the light density was tested at 450 nm. The virus inhibition concentration of 50% (EC50) of the compounds was calculated by using CalcuSyn software.

[1] = Cytotoxicity test of compound in H9 cells; conditions: human, H9 cell line, uninfected cells
Protocol: (§1) Reference document (J. Med. Chem. 2004, 47, 756-760). Lymphocyte H9 was cultured at 37° C. in culture medium 1640 and 5% CO2. […] The cultured H9 cells were divided into two parts, wherein one of the parts was infected with HIV virus (IIIB) (m.i.o. 0.1-0.01 infectious Units/cell), which was used for assaying activity. The other part of the cells was not added with viruses but only with culture medium, which was used for assaying toxicity. The two parts of the cells were cultured under completely identical conditions (37° C., 5% CO2) for 4 hours, washed with fresh culture medium for three times, and then were added respectively to the prepared tested samples of different concentrations or to culture medium (the latter was positive infection control or negative drug control), and meanwhile AZT was used as positive drug control. All these cells were cultured at 37° C. in 5% CO2 for 4 days. […] The part of the cells without viruses added were tested by the method of counting cells to assay the toxicity of the sample, expressed using CC50. […] Reference documents (Jiang, S., et al. Antimicrob. Agents Chemother. 2004, 48, 4349-4359). In 96 wells culture plate, 50 μl of different concentrations of compound solutions were mixed with PBS in the same volume, incubated at 37° C. for 30 minutes, added with 100 μL TM-2 (or H9) cell (1×10^5/mL, RPIM 1640 culture medium containing 10% serum), mixed uniformly, and incubated at 37° C. overnight.

[2] = Cytotoxicity test of compound in MT-2 cells (XTT); conditions: human, MT-2 cell line, uninfected cells
Protocol: (§2) Reference documents (Jiang, S., et al. Antimicrob. Agents Chemother. 2004, 48, 4349-4359). In 96 wells culture plate, 50 μl of different concentrations of compound solutions were mixed with PBS in the same volume, incubated at 37° C. for 30 minutes, added with 100 μL TM-2 (or H9) cell (1×10^5/mL, RPIM 1640 culture medium containing 10% serum), mixed uniformly, and incubated at 37° C. overnight.

H9 cells = test: Cytotoxicity test of compound in H9 cells; conditions: H9 cell line, uninfected cells
Protocol: as §1

MT-2 cells = test: Cytotoxicity test of compound in MT-2 cells (XTT); conditions: MT-2 cell line, uninfected cells
Protocol: as §2

[3] = Human immunodeficiency virus 1, read-out: EC50
[4] = Human immunodeficiency virus 1, MT2, read-out: EC50

Structure (SMILES) | SI (CC50/EC50) (HIV virus (IIIB)) | EC50 (HIV virus (IIIB); [3]) [µg/mL] | EC50 (HIV-1IIIB virus strains; [4]) [µg/mL] | SI (CC50/EC50) (HIV-1IIIB virus strains) | CC50 at 4 days ([1]; H9 lymphocyte cells) [µg/mL] | CC50 at 4 days ([2]; MT-2 cells) [µg/mL] | CC50 at 4 days [1] [µg/mL] | CC50 at 4 days [2] [µg/mL] | EC50 (HIV virus (IIIB)) [µg/mL] | EC50 (HIV-1IIIB virus strains) [µg/mL] | CC50 (H9 cells) [µg/mL] | CC50 (MT-2 cells) [µg/mL]
Cc1cc(C#N)cc(C)c1Oc1cc(Nc2ccc(C#N)cc2)c(N)cc1N [Compound I-10, N^1-(4′-cyanophenyl)-5-(4′-Cyano-2′,6′-dimethylphenoxy)benzene-1,2,4-triamine] | >820 | < 0.025 | 0.008 (≈ 0.0217 µM) | 2425 | 20.5 (≈ 55.5 µM) | 19.4 (≈ 52.5 µM) | – | – | – | – | – | –
Cc1cc(C)c(Nc2cc(Nc3ccc(C#N)cc3)c([N+](=O)[O-])cc2[N+](=O)[O-])c(C)c1 [Compound I-3, N^1-(4′-cyanophenyl)-2,4-dinitro-N^5-(2′,4′,6′-trimethylphenyl)-benzene-1,5-diamine] | >455 | 0.055 (≈ 0.132 µM) | 0.18 (≈ 0.431 µM) | >556 | – | – | > 25 | > 100 | – | – | – | –
Cc1cc(C)c(Oc2cc(Nc3ccc(C#N)cc3)c([N+](=O)[O-])cc2[N+](=O)[O-])c(C)c1 [Compound I-14, N^1-(4′-cyanophenyl)-5-(2′,4′,6′-trimethylphenoxy)-2,4-dinitroaniline] | >174 | 0.144 (≈ 0.344 µM) | 0.7 (≈ 1.67 µM) | 41.09 | – | – | > 25 | 28.8 (≈ 68.7 µM) | – | – | – | –
Cc1cc(Br)cc(C)c1Oc1cc(Nc2ccc(C#N)cc2)c([N+](=O)[O-])cc1[N+](=O)[O-] [Compound I-1, N^1-(4′-cyanophenyl)-5-(2′,6′-dimethyl-4′-bromophenoxy)-2,4-dinitroaniline] | >234 | 0.11 (≈ 0.228 µM) | 0.14 (≈ 0.29 µM) | >714 | – | – | > 25 | > 100 | – | – | – | –
Cc1cc(Br)cc(C)c1Oc1ccc(N)c(Nc2ccc(C#N)cc2)c1 [Compound I-13, 4-(4′-Bromo-2′,6′-dimethylphenoxy)-N^2-(4′-cyanophenyl)benzene-1,2-diamine] | 128 | 0.134 (≈ 0.328 µM) | 0.16 (≈ 0.392 µM) | 91 | 17.2 (≈ 42.1 µM) | 14.5 (≈ 35.5 µM) | – | – | – | – | – | –
CC(=O)ON(c1cc(Nc2ccc(C#N)cc2)c([N+](=O)[O-])cc1[N+](=O)[O-])c1c(C)cc(C)cc1C [Compound I-4, N^1-(4′-cyanophenyl)-2,4-dinitro-[N^5-acetoxy-N^5-(2′,4′,6′-trimethylphenyl)]benzene-1,5-diamine] | >14.15 | – | – | 23.45 | – | – | – | – | 1.77 (≈ 3.72 µM) | 2.61 (≈ 5.49 µM) | >25 | 61.21 (≈ 129 µM)
Cc1cccc(C)c1Oc1cc(Nc2ccc(C#N)cc2)c([N+](=O)[O-])cc1[N+](=O)[O-] [Compound I-2, N^1-(4′-cyanophenyl)-5-(2′,6′-dimethylphenoxy)-2,4-dinitroaniline] | >113 | 0.22 (≈ 0.544 µM) | 3.71 (≈ 9.17 µM) | >27 | – | – | > 25 | > 100 | – | – | – | –
Cc1cc(C#N)cc(C)c1Oc1cc(Nc2ccc(C#N)cc2)c(N)cc1[N+](=O)[O-] [Compound I-11, 5-(4′-Cyano-2′,6′-dimethylphenoxy)-N^1-(4′-cyanophenyl)-4-nitrobenzene-1,2-diamine] | >1000 | < 0.025 | 0.013 (≈ 0.0325 µM) | 4715 | > 25 | 61.3 (≈ 153 µM) | – | – | – | – | – | –
Cc1cc(Br)cc(C)c1Oc1cc(Nc2ccc(C#N)cc2)c(N)cc1N [Compound I-8, 5-(4′-Bromo-2′,6′-dimethylphenoxy)-N^1-(4′-cyanophenyl)benzene-1,2,4-triamine] | 239 | 0.068 (≈ 0.161 µM) | 0.13 (≈ 0.307 µM) | 132 | 16.2 (≈ 38.4 µM) | 17.2 (≈ 40.6 µM) | – | – | – | – | – | –
Cc1cccc(C)c1Oc1ccc([N+](=O)[O-])c(Nc2ccc(C#N)cc2)c1 [Compound I-7, N^1-(4′-cyanophenyl)-5-(2′,6′-dimethylphenoxy)-2-nitroaniline] | >33 | 0.76 (≈ 2.11 µM) | 1.18 (≈ 3.28 µM) | >85 | > 25 | > 100 | – | – | – | – | – | –
Cc1cc(Br)cc(C)c1Oc1cc(Nc2ccc(C#N)cc2)c(N)cc1[N+](=O)[O-] [Compound I-5, 4-(4′-Bromo-2′,6′-dimethylphenoxy)-N^2-(4′-cyanophenyl)-5-nitrobenzene-1,2-diamine] | >1000 | < 0.025 | < 0.02 | >3054 | > 25 | 61.1 (≈ 135 µM) | – | – | – | – | – | –
Cc1cc(C#N)cc(C)c1Oc1ccc([N+](=O)[O-])c(Nc2ccc(C#N)cc2)c1 [Compound I-6, N^1-(4′-cyanophenyl)-5-(4′-cyano-2′,6′-dimethylphenoxy)-2-nitroaniline] | >312 | 0.08 (≈ 0.208 µM) | 6.63 (≈ 17.2 µM) | 8.53 | > 25 | 56.5 (≈ 147 µM) | – | – | – | – | – | –
